Read-outs that look alike come from different tables or passages of the source.
Assays:
Br2 β-glucosidase [1] = settings: read-out: pNP-Glc; 0.1 M sodium phosphate, pH 6.5, 40 °C, 10 min; cited from earlier work
Br2 β-glucosidase [2] = settings: 0.1 M sodium phosphate, pH 6.5, 40 °C, 10 min
Br2 β-glucosidase [3] = assay: glucose release, glucose oxidase/ABTS assay, Michaelis-Menten fit; type: biochemical, uncultured bacterium; settings: 0.1 M sodium phosphate, pH 6.5, 40 °C, 10 min
Br2 β-glucosidase [4] = settings: read-out: pNP-Glc; 0.1 M sodium phosphate, pH 6.5, 40 °C, 10 min
Br2 β-glucosidase [5] = assay: p-nitrophenol release, absorbance at […] nm, Michaelis-Menten fit; type: biochemical, uncultured bacterium; settings: read-out: pNP-Glc; 0.1 M sodium phosphate, pH 6.5, 40 °C, 10 min
[6] = target: Br2 β-glucosidase (glycoside hydrolase family 1), wild type (bovine rumen metagenome (microbe not identified)); assay: SEC

For OC[C@H]1O[C@@H](O[C@H]2[C@H](O)[C@@H](O)C(O)O[C@@H]2CO)[C@H](O)[C@@H](O)[C@@H]1O (stereo partly shown) [Cellobiose], the Km (Br2 β-glucosidase [1]) is given as 24.3 ± 9.8 mM.

Compound OC[C@H]1O[C@@H](O[C@H]2[C@H](O)[C@@H](O)[C@H](O[C@H]3[C@H](O)[C@@H](O)[C@H](O[C@H]4[C@H](O)[C@@H](O)C(O)O[C@@H]4CO)O[C@@H]3CO)O[C@@H]2CO)[C@H](O)[C@@H](O)[C@@H]1O (stereo partly shown) [Cellotetraose] has a Km (Br2 β-glucosidase [2]; read-out: Gentiobiose) of 1.83 ± 0.09 mM and a Km (Br2 β-glucosidase [3]; read-out: Gentiobiose) of 3.87 ± 0.16 mM.

OC[C@H]1O[C@@H](O[C@H]2[C@H](O)[C@@H](O)[C@H](O[C@H]3[C@H](O)[C@@H](O)C(O)O[C@@H]3CO)O[C@@H]2CO)[C@H](O)[C@@H](O)[C@@H]1O (stereo partly shown) [Cellotriose] showed a Km (Br2 β-glucosidase [2]; read-out: Sophorose) of 3.57 ± 0.33 mM and a Km (Br2 β-glucosidase [3]; read-out: Sophorose) of 6.73 ± 0.32 mM.

Compound OC[C@H]1O[C@@H](OC[C@H]2OC(O)[C@H](O)[C@@H](O)[C@@H]2O)[C@H](O)[C@@H](O)[C@@H]1O (stereo partly shown) [Gentiobiose] has a Km (Br2 β-glucosidase [3]; read-out: Gentiobiose) of 35.8 ± 10.9 mM.

In the case of OC[C@H]1O[C@@H](O[C@H]2[C@H](O)[C@@H](CO)OC(O)[C@@H]2O)[C@H](O)[C@@H](O)[C@@H]1O (stereo partly shown) [Laminaribiose], the Km (Br2 β-glucosidase [4]) is reported as 11.7 ± 4.2 mM and the Km (Br2 β-glucosidase [3]; read-out: pNP-Glc) is reported as 1.29 ± 0.08 mM.

In the case of OC[C@H]1O[C@@H](O[C@@H]2[C@@H](O)[C@H](O[C@@H]3[C@@H](O)[C@H](O[C@H]4[C@H](O)[C@@H](CO)OC(O)[C@@H]4O)O[C@H](CO)[C@H]3O)O[C@H](CO)[C@H]2O)[C@H](O)[C@@H](O)[C@@H]1O (stereo partly shown) [Laminaritetraose], the Km (Br2 β-glucosidase [3]; read-out: Gentiobiose) is reported as 2.56 ± 0.41 mM.

Work on OC[C@H]1O[C@@H](O[C@@H]2[C@@H](O)[C@H](O[C@H]3[C@H](O)[C@@H](CO)OC(O)[C@@H]3O)O[C@H](CO)[C@H]2O)[C@H](O)[C@@H](O)[C@@H]1O (stereo partly shown) [Laminaritriose] yielded a Km (Br2 β-glucosidase [3]; read-out: Sophorose) of 0.9 ± 0.09 mM.

For OC[C@H]1O[C@@H](O[C@H]2C(O)O[C@H](CO)[C@@H](O)[C@@H]2O)[C@H](O)[C@@H](O)[C@@H]1O (stereo partly shown) [Sophorose], the Km (Br2 β-glucosidase [3]; read-out: Sophorose) was 2.68 ± 0.16 mM.

Compound O=[N+]([O-])c1ccc(O[C@@H]2O[C@H](CO)[C@@H](O)[C@H](O)[C@H]2O)cc1 [pNP-Glc, p-nitrophenyl β-D-glucopyranoside] has a Km (Br2 β-glucosidase [5]) of 0.55 ± 0.04 mM.

For “Br2 β-glucosidase (glycoside hydrolase family 1), wild type (enzyme)”, the stoichiometry N [6] was 4.
